Reference: article PMC5063830, “Design and synthesis of chalcone derivatives as potential non-purine xanthine oxidase inhibitors” (SpringerPlus, 2016)

Experiments:
xanthine oxidase = xanthine oxidase (Bos taurus, UniProt P80457); assay: Assessment of xanthine oxidase inhibitory activity (spectrophotometric, 290 nm); assay type: biochemical; conditions: for IC50: 150 μM xanthine, 70 mM phosphate buffer pH 7.5, 25 °C, mean of four determinations, read-out: XO inhibitory activity IC50
Description: The assay mixture consisting of 50 μL of test solution, 35 μL of 70 mM phosphate buffer (pH 7.5), and 30 μL of enzyme solution (0.01 units/mL in 70 mM phosphate buffer, pH 7.5) was prepared immediately before use. […] The reaction was stopped by adding 25 μL of HCl 1 N, and the absorbance at 290 nm was measured with a Shimadzu UV-1800. […] XO inhibitory activity was expressed as the percentage inhibition of XO in the above assay system, calculated as (1 − B/A) × 100, where A and B are the activities of the enzyme without and with the test material. IC50 values were calculated from the mean values of data from four determinations.

xanthine oxidase, sequence (P80457 2-1332 limits assumed): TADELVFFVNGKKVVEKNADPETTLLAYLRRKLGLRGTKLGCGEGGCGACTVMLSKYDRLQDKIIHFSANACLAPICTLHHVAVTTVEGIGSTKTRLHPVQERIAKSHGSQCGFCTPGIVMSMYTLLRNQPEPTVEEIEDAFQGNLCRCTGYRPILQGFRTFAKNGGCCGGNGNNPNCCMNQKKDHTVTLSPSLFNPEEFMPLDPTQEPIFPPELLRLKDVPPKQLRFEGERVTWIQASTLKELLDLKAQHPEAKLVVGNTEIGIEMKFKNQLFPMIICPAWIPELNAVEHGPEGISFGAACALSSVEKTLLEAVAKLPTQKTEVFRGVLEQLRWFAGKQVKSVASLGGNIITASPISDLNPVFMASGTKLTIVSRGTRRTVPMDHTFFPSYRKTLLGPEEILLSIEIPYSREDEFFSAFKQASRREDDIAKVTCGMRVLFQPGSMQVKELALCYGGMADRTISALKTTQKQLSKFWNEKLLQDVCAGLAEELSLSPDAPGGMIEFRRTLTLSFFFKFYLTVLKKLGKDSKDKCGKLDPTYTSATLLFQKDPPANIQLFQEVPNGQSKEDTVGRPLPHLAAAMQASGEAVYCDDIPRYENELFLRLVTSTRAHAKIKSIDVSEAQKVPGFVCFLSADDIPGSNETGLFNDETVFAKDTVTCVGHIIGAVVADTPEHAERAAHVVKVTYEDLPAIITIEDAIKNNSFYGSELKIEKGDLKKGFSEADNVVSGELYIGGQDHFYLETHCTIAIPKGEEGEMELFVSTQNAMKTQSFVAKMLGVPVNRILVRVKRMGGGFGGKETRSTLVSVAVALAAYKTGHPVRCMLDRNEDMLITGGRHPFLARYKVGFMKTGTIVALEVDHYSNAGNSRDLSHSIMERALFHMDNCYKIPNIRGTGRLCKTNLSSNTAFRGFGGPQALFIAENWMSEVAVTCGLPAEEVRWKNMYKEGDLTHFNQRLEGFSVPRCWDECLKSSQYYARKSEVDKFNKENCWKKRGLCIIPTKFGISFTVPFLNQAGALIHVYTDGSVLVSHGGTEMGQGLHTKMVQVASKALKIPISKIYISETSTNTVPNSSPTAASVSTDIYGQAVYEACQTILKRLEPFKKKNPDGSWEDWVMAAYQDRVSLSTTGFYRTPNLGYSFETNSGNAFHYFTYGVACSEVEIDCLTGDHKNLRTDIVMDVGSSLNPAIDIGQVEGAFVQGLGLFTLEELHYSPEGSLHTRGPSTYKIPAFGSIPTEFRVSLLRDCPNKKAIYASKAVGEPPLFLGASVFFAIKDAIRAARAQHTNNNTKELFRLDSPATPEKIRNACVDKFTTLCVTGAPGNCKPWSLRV

SMILES	IC50 (xanthine oxidase)	XO inhibitory activity (in words) (xanthine oxidase)	melting point
O=C(/C=C/c1ccc(O)c(O)c1)c1ccccc1 [Compound 3, 3,4-dihydroxychalcone]	40.9 µM		
O=C(/C=C/c1ccccc1)c1ccc(O)cc1O [Compound 4, 2′,4′-dihydroxychalcone]	> 100 µM	do not show activity	
O=C(/C=C/c1ccc(O)c(O)c1)c1ccc(O)cc1O [Compound 5, 3,4,2ʹ,4ʹ-tetrahydroxychalcone]	4.3 µM		
O=C(/C=C/c1ccc(O)cc1O)c1ccc(O)cc1O [Compound 6, 2,4,2′,4′-tetrahydroxychalcone]	16.3 µM		
COc1ccc(/C=C/C(=O)c2ccc(O)cc2O)cc1O [Compound 8, 3,2ʹ,4ʹ-trihydroxy-4-methoxychalcone]	36.7 µM		
COc1ccc(/C=C/C(=O)c2ccc(O)cc2O)cc1OC [Compound 9, 2ʹ,4ʹ-dihydroxy-3,4-dimethoxychalcone]	> 100 µM		
COc1ccc(C(=O)/C=C/c2ccc(O)c(O)c2)c(O)c1 [Compound 10, 3,4,2ʹ-trihydroxy-4ʹ-methoxychalcone]	19.2 µM		
COc1ccc(C(=O)/C=C/c2ccc(O)c(O)c2)c(OC)c1 [Compound 11, 3,4-dihydroxy-2ʹ,4ʹ-dimethoxychalcone]	2.5 µM		
COc1ccc(/C=C/C(=O)c2ccc(O)cc2O)c(O)c1 [Compound 12, 2,2ʹ,4ʹ-trihydroxy-4-methoxychalcone]	21.8 µM		
COc1ccc(C(=O)/C=C/c2ccc(O)c(O)c2)c(O)c1C(=O)/C=C/c1ccc(O)c(O)c1 [Compound 13, 3ʹ-caffeoyl-3,4,2ʹ-trihydroxy-4ʹ-methoxychalcone]	2.4 µM	most potent active	200 to 201 °C
COc1ccc(/C=C/C(=O)c2ccccc2)cc1O [Compound 14, 3-hydroxy-4-methoxychalcone]	> 100 µM		
COc1ccc(/C=C/C(=O)c2ccccc2)cc1OC [Compound 15, 3,4-dimethoxychalcone]	> 100 µM		
COc1ccc(C(=O)/C=C/c2ccc(OC)c(OC)c2)c(O)c1 [Compound 16, 2ʹ-hydroxy-3,4,4ʹ-trimethoxychalcone]	> 100 µM		
CC(=O)Oc1ccc(C(=O)/C=C/c2ccc(OC(C)=O)c(OC(C)=O)c2)c(O)c1 [Compound 17, 3,4,4ʹ-triacetoxy-2ʹ-hydroxychalcone]	> 100 µM		110 to 111 °C
O=C(/C=C/c1ccccc1)c1ccccc1 [Compound 18, chalcone]	> 100 µM	not displayed xanthine oxidase inhibitory activity	
